System: subjects with moderately to severely active RA who have an inadequate response to methotrexate (MTX)
Assay: Study 1 (add-on to MTX) - Aspartate Aminotransferase (AST) levels
Type: in vivo, human
Details: 24 weeks results
Description: Double-blind, placebo-controlled add on study in subjects with moderately to severely active RA who have an inadequate response to methotrexate (MTX) (oral or parenteral).
595 subjects randomized to one of 6 dose regimens of Compound 1 (dosed as [Compound 1:HCl:3H2O]) (3 dose levels administered either once or twice daily) or placebo on top of each subject's stable dose of MTX.
Compound 1 (dosed as [Compound 1:HCl:3H2O]) is dosed for twelve weeks once daily (q.d.) (50 mg, 100 mg or 200 mg) or twice daily (b.i.d.) (25 mg, 50 mg or 100 mg); or placebo.
At Week 12, the subjects on placebo who have not achieved 20% improvement in swollen joint count (SJC66) and tender joint count (TJC68) are re-randomized automatically to receive Compound 1 (dosed as a [Compound 1:HCl:3H2O]) either at 100 mg q.d. or 50 mg b.i.d. doses in a blinded fashion; subjects on 50 mg q.d. who have not achieved 20% improvement in SJC66 and TJC68 will be assigned to 100 mg q.d. and subjects on 25 mg b.i.d. that have not achieved a 20% improvement in SJC66 and TJC68 will be assigned to 50 mg b.i.d. Subjects who switch treatment at week 12 are handled as if they discontinued at week 12 for the purpose of statistical analysis, whereas subjects in the other groups will maintain their randomized treatment until Week 24.
AST levels determination is available at Quest Diagnostics, Clinical Trials, Quest House, 125-135 Staines Road, Hounslow, Middlesex, TW3 3JB, United Kingdom under Catalogue n#84450. For Study 3, the data are obtained at BARC Europe, 3B,Industrie Park, Zwijnaarde, B-9052 Ghent, Belgium.
AST catalyzes the transamination of aspartate and 2-oxoglutarate, forming L-glutamate and oxalacetate. The oxalacetate is reduced to L-malate by malate dehydrogenase, whilst NADH is converted to NAD+, measured spectrophotometrically. Guidelines for the AST value have been issued by the association for Clinical Biochemistry and Laboratory Medicine, 130-132 Tooley Street LONDON SE1 2TU, united Kingdom, wherein the AST value should be below 34 U/l in Female and below 45 U/L in male. As disclosed in the respective study protocols for Study 1 or 2, at week 12, depending on the outcome of their treatment, the subjects may be continued in their initial treatment course, or reassigned to another treatment group in a randomized blinded fashion until week 24. Therefore, the number of subjects (N) for the period of either 12 weeks, or 24 weeks is provided to reflect this redistribution at week 12.

[1] = continued 100 mg b.i.d., week 1
[2] = continued 100 mg b.i.d., week 2
[3] = continued 100 mg b.i.d., week 4
[4] = continued 100 mg b.i.d., week 8
[5] = continued 100 mg b.i.d., week 12
[6] = continued 100 mg b.i.d., week 16
[7] = continued 100 mg b.i.d., week 20
[8] = continued 100 mg b.i.d., week 24
[9] = from 25 mg b.i.d. to 50 mg b.i.d. at 12 weeks, week 1
[10] = from 25 mg b.i.d. to 50 mg b.i.d. at 12 weeks, week 2
[11] = from 25 mg b.i.d. to 50 mg b.i.d. at 12 weeks, week 4
[12] = from 25 mg b.i.d. to 50 mg b.i.d. at 12 weeks, week 8
[13] = from 25 mg b.i.d. to 50 mg b.i.d. at 12 weeks, week 12
[14] = from 25 mg b.i.d. to 50 mg b.i.d. at 12 weeks, week 16
[15] = from 25 mg b.i.d. to 50 mg b.i.d. at 12 weeks, week 20
[16] = from 25 mg b.i.d. to 50 mg b.i.d. at 12 weeks, week 24
[17] = from 50 mg q.d. to 100 mg q.d. at 12 weeks, week 1
[18] = from 50 mg q.d. to 100 mg q.d. at 12 weeks, week 2
[19] = from 50 mg q.d. to 100 mg q.d. at 12 weeks, week 4
[20] = from 50 mg q.d. to 100 mg q.d. at 12 weeks, week 8
[21] = from 50 mg q.d. to 100 mg q.d. at 12 weeks, week 12
[22] = from 50 mg q.d. to 100 mg q.d. at 12 weeks, week 16
[23] = from 50 mg q.d. to 100 mg q.d. at 12 weeks, week 20
[24] = from 50 mg q.d. to 100 mg q.d. at 12 weeks, week 24
[25] = placebo switched to 50 mg b.i.d. at week 12, week 16
[26] = placebo switched to 50 mg b.i.d. at week 12, week 20
[27] = placebo switched to 50 mg b.i.d. at week 12, week 24
[28] = placebo switched to 100 mg q.d. at week 12, week 16
[29] = placebo switched to 100 mg q.d. at week 12, week 20
[30] = placebo switched to 100 mg q.d. at week 12, week 24

O=C(Nc1nc2cccc(-c3ccc(CN4CCS(=O)(=O)CC4)cc3)n2n1)C1CC1 [Compound 1, cyclopropanecarboxylic acid {5-[4-(1,1-dioxo-thiomorpholin-4-ylmethyl)-phenyl]-[1,2,4]triazolo[1,5-a]pyridin-2-yl}-amide]
Study 1 - AST Mean CFB (continued 50 mg q.d., week 12): 0.6 IU/L | Study 1 - AST Mean percentage CFB (continued 50 mg q.d., week 12): 11.4% | Study 1 - AST Mean CFB (continued 50 mg q.d., week 16): 1.4 IU/L | Study 1 - AST Mean percentage CFB (continued 50 mg q.d., week 16): 15.1% | Study 1 - AST Mean CFB (continued 50 mg q.d., week 20): 2.1 IU/L | Study 1 - AST Mean percentage CFB (continued 50 mg q.d., week 20): 16.8% | Study 1 - AST Mean CFB (continued 50 mg q.d., week 24): 1.0 IU/L | Study 1 - AST Mean percentage CFB (continued 50 mg q.d., week 24): 12.9% | Study 1 - AST Mean CFB [1]: 1.4 IU/L | Study 1 - AST Mean percentage CFB [1]: 10.0% | Study 1 - AST Mean CFB [2]: 2.3 IU/L | Study 1 - AST Mean percentage CFB [2]: 14.1% | Study 1 - AST Mean CFB [3]: 2.6 IU/L | Study 1 - AST Mean percentage CFB [3]: 19.1% | Study 1 - AST Mean CFB [4]: 1.9 IU/L | Study 1 - AST Mean percentage CFB [4]: 17.4% | Study 1 - AST Mean CFB [5]: 2.5 IU/L | Study 1 - AST Mean percentage CFB [5]: 20.1% | Study 1 - AST Mean CFB [6]: 3.5 IU/L | Study 1 - AST Mean percentage CFB [6]: 25.2% | Study 1 - AST Mean CFB [7]: 3.0 IU/L | Study 1 - AST Mean percentage CFB [7]: 23.1% | Study 1 - AST Mean CFB [8]: 5.0 IU/L | Study 1 - AST Mean percentage CFB [8]: 37.6% | Study 1 - AST Mean CFB (continued 100 mg q.d., week 1): 3.0 IU/L | Study 1 - AST Mean percentage CFB (continued 100 mg q.d., week 1): 13.5% | Study 1 - AST Mean CFB (continued 100 mg q.d., week 2): 1.0 IU/L | Study 1 - AST Mean percentage CFB (continued 100 mg q.d., week 2): 9.4% | Study 1 - AST Mean CFB (continued 100 mg q.d., week 4): 1.6 IU/L | Study 1 - AST Mean percentage CFB (continued 100 mg q.d., week 4): 11.2% | Study 1 - AST Mean CFB (continued 100 mg q.d., week 8): 2.8 IU/L | Study 1 - AST Mean percentage CFB (continued 100 mg q.d., week 8): 17.1% | Study 1 - AST Mean CFB (continued 100 mg q.d., week 12): 2.4 IU/L | Study 1 - AST Mean percentage CFB (continued 100 mg q.d., week 12): 15.7% | Study 1 - AST Mean CFB (continued 100 mg q.d., week 16): 1.5 IU/L | Study 1 - AST Mean percentage CFB (continued 100 mg q.d., week 16): 11.5% | Study 1 - AST Mean CFB (continued 100 mg q.d., week 20): 2.6 IU/L | Study 1 - AST Mean percentage CFB (continued 100 mg q.d., week 20): 19.2% | Study 1 - AST Mean CFB (continued 100 mg q.d., week 24): 4.4 IU/L | Study 1 - AST Mean percentage CFB (continued 100 mg q.d., week 24): 28.6% | Study 1 - AST Mean CFB (continued 200 mg q.d., week 1): 3.1 IU/L | Study 1 - AST Mean percentage CFB (continued 200 mg q.d., week 1): 16.1% | Study 1 - AST Mean CFB (continued 200 mg q.d., week 2): 1.9 IU/L | Study 1 - AST Mean percentage CFB (continued 200 mg q.d., week 2): 12.8% | Study 1 - AST Mean CFB (continued 200 mg q.d., week 4): 2.7 IU/L | Study 1 - AST Mean percentage CFB (continued 200 mg q.d., week 4): 18.7% | Study 1 - AST Mean CFB (continued 200 mg q.d., week 8): 4.5 IU/L | Study 1 - AST Mean percentage CFB (continued 200 mg q.d., week 8): 27.2% | Study 1 - AST Mean CFB (continued 200 mg q.d., week 12): 4.8 IU/L | Study 1 - AST Mean percentage CFB (continued 200 mg q.d., week 12): 28.8% | Study 1 - AST Mean CFB (continued 200 mg q.d., week 16): 6.8 IU/L | Study 1 - AST Mean percentage CFB (continued 200 mg q.d., week 16): 36.8% | Study 1 - AST Mean CFB (continued 200 mg q.d., week 20): 4.0 IU/L | Study 1 - AST Mean percentage CFB (continued 200 mg q.d., week 20): 23.3% | Study 1 - AST Mean CFB (continued 200 mg q.d., week 24): 5.2 IU/L | Study 1 - AST Mean percentage CFB (continued 200 mg q.d., week 24): 30.6% | Study 1 - AST Mean CFB [9]: −5.0 IU/L | Study 1 - AST Mean percentage CFB [9]: −12.5% | Study 1 - AST Mean CFB [10]: −2.3 IU/L | Study 1 - AST Mean percentage CFB [10]: −0.7% | Study 1 - AST Mean CFB [11]: −2.9 IU/L | Study 1 - AST Mean percentage CFB [11]: −2.7% | Study 1 - AST Mean CFB [12]: −4.1 IU/L | Study 1 - AST Mean percentage CFB [12]: −7.2% | Study 1 - AST Mean CFB [13]: −1.0 IU/L | Study 1 - AST Mean percentage CFB [13]: 4.5% | Study 1 - AST Mean CFB [14]: −3.3 IU/L | Study 1 - AST Mean percentage CFB [14]: −2.3% | Study 1 - AST Mean CFB [15]: −0.6 IU/L | Study 1 - AST Mean percentage CFB [15]: 8.2% | Study 1 - AST Mean CFB [16]: 0.6 IU/L | Study 1 - AST Mean percentage CFB [16]: 14.2% | Study 1 - AST Mean CFB [17]: 0.3 IU/L | Study 1 - AST Mean percentage CFB [17]: 5.0% | Study 1 - AST Mean CFB [18]: 0.0 IU/L | Study 1 - AST Mean percentage CFB [18]: 3.4% | Study 1 - AST Mean CFB [19]: −0.5 IU/L | Study 1 - AST Mean percentage CFB [19]: 3.6% | Study 1 - AST Mean CFB [20]: −0.4 IU/L | Study 1 - AST Mean percentage CFB [20]: 3.0% | Study 1 - AST Mean CFB [21]: 0.1 IU/L | Study 1 - AST Mean percentage CFB [21]: 4.2% | Study 1 - AST Mean CFB [22]: −0.9 IU/L | Study 1 - AST Mean percentage CFB [22]: −0.2% | Study 1 - AST Mean CFB [23]: 0.4 IU/L | Study 1 - AST Mean percentage CFB [23]: 4.9% | Study 1 - AST Mean CFB [24]: −1.7 IU/L | Study 1 - AST Mean percentage CFB [24]: −2.5% | Study 1 - AST Mean CFB [25]: 2.1 IU/L | Study 1 - AST Mean percentage CFB [25]: 14.9% | Study 1 - AST Mean CFB [26]: −0.1 IU/L | Study 1 - AST Mean percentage CFB [26]: 1.9% | Study 1 - AST Mean CFB [27]: 3.5 IU/L | Study 1 - AST Mean percentage CFB [27]: 19.7% | Study 1 - AST Mean CFB [28]: 1.3 IU/L | Study 1 - AST Mean percentage CFB [28]: 1.0% | Study 1 - AST Mean CFB [29]: 1.2 IU/L | Study 1 - AST Mean percentage CFB [29]: 9.8% | Study 1 - AST Mean CFB [30]: 3.2 IU/L | Study 1 - AST Mean percentage CFB [30]: 23.1%

— patent US20180200257A1, “METHODS FOR THE TREATMENT OF INFLAMMATORY DISORDERS” (Galapagos NV, priority 2015, published 2018)
